Measurements: PubChem BioAssay (NCI)
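Five concentrations, 48 hours, 96-well plates. At the GI50, growth is halved. TGI marks complete inhibition of growth.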

How the values were obtained:
Experiment in all cases: NCI anticancer screen, dose series, 48 h
[1] = system: NCI-H226 lung
[2] = system: U251 CNS
[3] = system: SF-295 CNS
[4] = system: SK-MEL-2 melanoma
[5] = system: UO-31 renal
[6] = system: M14 melanoma
[7] = system: SK-MEL-28 melanoma
[8] = system: NCI/ADR-RES ovarian
[9] = system: PC-3 prostate
[10] = system: DU-145 prostate

Structure (SMILES) | TGI [1] | TGI [2] | TGI [3] | TGI [4] | TGI [5] | TGI [6] | TGI [7] | GI50 [1] | GI50 [2] | GI50 [3] | GI50 [4] | GI50 [8] | TGI [8] | GI50 [5] | GI50 [6] | GI50 [9] | TGI [9] | GI50 [7] | TGI [10] | GI50 [10]
CCCCN=C(NC#N)N(Cc1ccccc1)Cc1ccccc1 | > 100 µM | 81.3 µM | 63.2 µM | 36.8 µM | 58 µM | 53.3 µM | 81.2 µM | – | – | – | – | – | – | – | – | – | – | – | – | –
O=C1C2CC=CCC2C(=O)C12CCc1ccccc12 (configuration not stated) | – | > 100 µM | > 100 µM | – | > 100 µM | > 100 µM | > 100 µM | – | – | – | – | – | – | – | – | – | – | – | – | –
Cc1ccc(C(=O)N2c3ccccc3N(C)n3cccc3C2CC(=O)O)cc1 (configuration not stated) | > 100 µM | – | > 100 µM | > 100 µM | > 100 µM | > 100 µM | > 100 µM | – | – | – | – | – | – | – | – | – | – | – | – | –
O=C(NC12CC3CC(CC(C3)C1)C2)C(=O)c1c[nH]c2ccc([N+](=O)[O-])cc12 | 63.6 µM | > 46.8 µM | 37.9 µM | > 100 µM | > 100 µM | > 100 µM | > 100 µM | – | – | – | – | – | – | – | – | – | – | – | – | –
N#Cc1ccc(Nc2cnc3ccc(N)cc3n2)cc1 | > 100 µM | > 100 µM | > 100 µM | > 100 µM | > 100 µM | > 100 µM | > 100 µM | – | – | – | – | – | – | – | – | – | – | – | – | –
CC(C)N1CCC2(CC1)NNc1ncccc1-n1cccc12 | > 100 µM | > 100 µM | > 100 µM | > 100 µM | > 100 µM | > 100 µM | > 100 µM | – | – | – | – | – | – | – | – | – | – | – | – | –
C[C@]1(C(=O)O)N[C@H](C(=O)O)CS1 | > 1000 µM | > 1000 µM | > 1000 µM | > 1000 µM | > 1000 µM | > 1000 µM | > 1000 µM | > 1000 µM | > 1000 µM | 933 µM | > 1000 µM | > 1000 µM | > 1000 µM | > 1000 µM | > 1000 µM | > 1000 µM | > 1000 µM | > 1000 µM | – | –
CC(C)(O)[C@@H]1CC[C@@]2(C)CCC[C@H](O)[C@H]2C1 | > 100 µM | > 100 µM | > 100 µM | > 100 µM | > 100 µM | > 100 µM | > 100 µM | – | – | – | – | – | – | – | – | – | – | – | – | –
NC(CC(=O)Nc1ccc(Cl)cc1)=Nc1ccccc1 | > 100 µM | > 100 µM | > 100 µM | > 100 µM | > 100 µM | > 100 µM | > 100 µM | – | – | – | – | – | – | – | – | – | – | – | – | –
Cc1ccc(C(=O)N2CCN(C(=O)c3ccc(C)cc3)c3ccccc32)cc1 | > 79.8 µM | 24.9 µM | > 43.1 µM | > 39.6 µM | > 56.6 µM | > 100 µM | > 100 µM | – | – | – | – | – | – | – | – | – | > 100 µM | – | > 100 µM | –
COC(=O)[C@@]1(O)CC(C)C=C1C=O (some centres not stated) | > 100 µM | 38.4 µM | > 100 µM | > 100 µM | > 100 µM | > 100 µM | > 100 µM | – | – | – | – | – | – | – | – | – | – | – | – | –
O=c1cc(-c2ccccc2)nc(/C=C(\O)c2ccncc2)n1-c1ccccc1 | > 100 µM | > 100 µM | > 100 µM | > 100 µM | > 100 µM | > 100 µM | > 100 µM | – | – | – | – | – | – | – | – | – | – | – | – | –
Nc1nc(NC2C=C(CO)C(O)C2O)c([N+](=O)[O-])c(=O)[nH]1 (configuration not stated) | > 100 µM | > 100 µM | > 100 µM | > 100 µM | > 100 µM | > 100 µM | > 100 µM | – | – | – | – | – | – | – | – | – | – | – | – | –
COc1cc([C@H]2c3cc4c(cc3[C@H](NCc3ccc([N+](=O)[O-])cc3)C3COC(=O)[C@H]32)OCO4)cc(OC)c1O (some centres not stated) | 1.68 µM | 3.26 µM | 5.14 µM | 34.9 µM | 5.75 µM | 10.4 µM | > 100 µM | – | – | – | – | – | – | – | – | – | – | – | – | –
CC(C)(c1ccc(Oc2ccc(C#N)c(C#N)c2)cc1)c1ccc(Oc2ccc(C#N)c(C#N)c2)cc1 | – | > 100 µM | > 100 µM | > 100 µM | > 100 µM | > 100 µM | > 100 µM | – | > 100 µM | > 100 µM | > 100 µM | – | – | – | > 100 µM | – | – | > 100 µM | – | –
O=C(Nc1ccc2[nH]c(C(=O)N3CC(CCl)c4c3cc([N+](=O)[O-])c3ccccc43)cc2c1)c1cc2ccccc2o1 (configuration not stated) | > 1100 µM | > 1100 µM | > 1100 µM | > 1100 µM | > 1100 µM | > 1100 µM | > 1100 µM | > 1100 µM | > 1100 µM | – | > 1100 µM | > 1100 µM | > 1100 µM | > 1100 µM | > 1100 µM | – | – | > 1100 µM | > 1100 µM | > 1100 µM
COC1=C2C[C@H](O)C(C)C[C@@]2(OC)OC1=O (some centres not stated) | – | > 100 µM | > 100 µM | > 100 µM | > 100 µM | > 100 µM | > 100 µM | – | – | – | – | – | – | – | – | – | – | – | – | –
